Assays:
[1] = molecular target: T1, CD73 enzymatic activity expressed on the cell surface of MDA-MB-231 cells (Homo sapiens, UniProt P21589); assay: Inhibition of CD73 enzymatic activity on the cell surface (Cell Titer Glo (CTG) experiment), MDA-MB-231 cells; type: cell-based; conditions: MDA-MB-231 cells endogenously expressing CD73, AMP, 37° C. for 2 hours, CTG readout; read-out: Cellular activity IC50
T1 construct: Human breast cancer cells MDA-MB-231 that endogenously express CD73 were used; host or cells: MDA-MB-231
T1 sequence (P21589 27-549): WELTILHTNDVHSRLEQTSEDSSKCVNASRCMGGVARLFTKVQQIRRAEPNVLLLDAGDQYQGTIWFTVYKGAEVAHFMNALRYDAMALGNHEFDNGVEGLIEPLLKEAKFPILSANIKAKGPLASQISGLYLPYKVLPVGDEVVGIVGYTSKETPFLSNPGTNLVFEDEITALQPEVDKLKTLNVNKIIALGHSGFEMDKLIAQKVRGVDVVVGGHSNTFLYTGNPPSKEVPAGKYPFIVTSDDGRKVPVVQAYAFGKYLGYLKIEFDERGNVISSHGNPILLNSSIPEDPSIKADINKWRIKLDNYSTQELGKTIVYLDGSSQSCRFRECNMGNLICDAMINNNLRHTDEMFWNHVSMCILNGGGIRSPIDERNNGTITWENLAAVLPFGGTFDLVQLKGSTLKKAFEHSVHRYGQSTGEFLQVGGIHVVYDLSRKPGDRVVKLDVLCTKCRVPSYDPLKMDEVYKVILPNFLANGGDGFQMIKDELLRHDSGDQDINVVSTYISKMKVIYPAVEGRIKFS
Experimental: Human breast cancer cells MDA-MB-231 that endogenously express CD73 were used in the present invention to evaluate the inhibition of the compound against the CD73 enzymatic activity expressed on the cell surface. The cells used were from the Cell Bank of the Chinese Academy of Sciences. The specific experimental procedures were as follows:
1. Before the test, MDA-MB231 cells were seeded to a 96-well plate at 20000 cells/well;
2. In RPMI1640, 10% fetal bovine serum (Gibco, 10099-141), placed in a 5% CO2 incubator at 37° C. overnight (the cells were washed three times by using a serum-free RPMI medium right before the test):
3. 50 μl of serum-free media containing the compounds at different concentrations were added to the cells and incubated for 15 minutes;
4. 25 μL of 1.2 mM AMP was added for incubation at 37° C. for 2 hours, 25 μL of supernatant was then collected from the cells and mix with 25 μL of 100 μM ATP, and then the concentration of AMP in the samples was determined by CTG (Promega, #G7573);
5. Then, a reduction ratio of the substrate AMP level in the cell culture supernatant collected after the reaction was quantitatively determined to evaluate the inhibitory effects of the examples of the present invention and the positive compounds against the CD73 enzymatic activity on the cell surface;
6. Finally, the concentration of the compound leading to half maximal inhibition of enzymatic activity (IC50) was determined using a four-parameter non-linear logistic model curve fit in Graphpad Prism.

[2] = molecular target: T2, CD73 (Homo sapiens, UniProt P21589); assay: In vitro enzymatic activity against CD73 (malachite green test using soluble CD73); type: biochemical; conditions: soluble CD73 36 ng/mL, 50 μM AMP, 30 minutes at 25° C.
T2 construct: purchased R&D systems 5795-EN-010
T2 sequence (P21589 27-547 limits assumed): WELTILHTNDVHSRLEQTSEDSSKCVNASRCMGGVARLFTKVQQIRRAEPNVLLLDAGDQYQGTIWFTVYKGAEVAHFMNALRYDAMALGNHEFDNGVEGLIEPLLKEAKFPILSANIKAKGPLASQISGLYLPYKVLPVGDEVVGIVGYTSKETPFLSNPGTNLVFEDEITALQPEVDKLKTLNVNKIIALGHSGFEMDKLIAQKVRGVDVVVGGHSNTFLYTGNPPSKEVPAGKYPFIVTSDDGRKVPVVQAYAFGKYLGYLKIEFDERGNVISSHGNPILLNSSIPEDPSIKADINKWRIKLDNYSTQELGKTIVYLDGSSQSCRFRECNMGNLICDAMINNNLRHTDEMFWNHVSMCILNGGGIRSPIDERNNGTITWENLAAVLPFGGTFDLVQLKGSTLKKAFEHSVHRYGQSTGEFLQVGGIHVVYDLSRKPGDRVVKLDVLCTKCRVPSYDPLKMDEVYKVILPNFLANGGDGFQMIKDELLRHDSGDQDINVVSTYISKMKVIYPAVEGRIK
Experimental: The malachite green test using soluble CD73, which is synthesized in vitro was used in the present invention to determine the characteristics of inhibitory activity of the compounds against CD73. The specific experimental procedures were as following:
1. The enzyme reaction in this experiment was carried out in 384-well plates, and CD73 (R&D systems #5795-EN-010) at a concentration of 36 ng/mL, the compounds at different concentrations and 50 μM AMP were incubated for 30 minutes at 25° C. in a 40 uL reaction system (consisting of 25 mM Tris pH 7.5, 5 mM MgCl2, and 0.005% Tween-20);
2. Then, 10 μL of malachite green solution (Sigma) was added to each well to terminate the reaction;
3. The concentration of resulting inorganic phosphate was determined according to the instructions of the reagent manufacturer;
4. The enzymatic activity of CD73 was calculated based on the concentration of the product, and then IC50 values were determined by non-linear regression analysis of the inhibition percentage of the compounds of the present invention at different concentrations.

IC50 [1]	IC50 [2]	SMILES
1.61 nM	15.1 nM	C[C@@H](Nc1cc(Cl)nc2c1cnn2[C@@H]1O[C@H](COP(=O)(O)CP(=O)(O)O)[C@@H](O)[C@H]1O)c1ccc(S(F)(F)(F)(F)F)cc1 [Example 7, (((((2R,3S,4R,5R)-5-(6-chloro-4-(((R)-1-(4-(pentafluoro-λ^6-sulfanyl)phenyl)ethyl)amino)-1H-pyrazolo[3,4-b]pyridin-1-yl)-3,4-dihydroxytetrahydrofuran-2-yl)methoxy)(hydroxy)phosphoryl)methyl) phosphonic acid]
3.18 nM	–	O=P(O)(O)CP(=O)(O)OC[C@H]1C[C@@H](c2ccc3c(N[C@H]4CCc5ccccc54)nc(Cl)nn23)[C@H](O)[C@@H]1O [Example 26, (((((1R,2R,3S,4S)-4-(2-chloro-4-(((S)-2,3-dihydro-1H-inden-1-yl)amino)pyrrolo[2,1-f][1,2,4]triazin-7-yl)-2,3-dihydroxy-cyclopentyl)methoxy)(hydroxy)phosphoryl)methyl)phosphonic acid]
0.27 nM	0.71 nM	O=P(O)(O)CP(=O)(O)OC[C@H]1O[C@@H](n2ncc3c(N[C@@H]4CCc5ccc(C(F)(F)F)cc54)cc(Cl)nc32)[C@H](O)[C@@H]1O [Example 20, (((((2R,3S,4R,5R)-5-(6-chloro-4-(((R)-6-(trifluoromethyl)-2,3-dihydro-1H-inden-1-yl)amino)-1H-pyrazolo[3,4-b]pyridin-1-yl)-3,4-dihydroxytetrahydrofuran-2-yl)methoxy)(hydroxy)phosphoryl)methyl)phosphonic acid]
2.4 nM	27.9 nM	O=P(O)(O)CP(=O)(O)OC[C@H]1C[C@@H](c2ccc3c(N[C@H]4CCc5cc(F)cc(F)c54)nc(Cl)nn23)[C@H](O)[C@@H]1O [Example 33, (((((1R,2R,3S,4S)-4-(2-chloro-4-(((S)-5,7-difluoro-2,3-dihydro-1H-inden-1-yl)amino)pyrrolo[2,1-f][1,2,4]triazin-7-yl)-2,3-dihydroxycyclopentyl)methoxy)(hydroxy)phosphoryl)methyl)phosphonic acid]
2.54 nM	82.6 nM	O=P(O)(O)CP(=O)(O)OC[C@H]1C[C@@H](c2ccc3c(N[C@H]4CCc5cc(F)ccc54)nc(Cl)nn23)[C@H](O)[C@@H]1O [Example 27, (((((1R,2R,3S,4S)-4-(2-chloro-4-(((S)-5-fluoro-2,3-dihydro-1H-inden-1-yl)amino)pyrrolo[2,1-f][1,2,4]triazin-7-yl)-2,3-dihydroxycyclopentyl)methoxy)(hydroxy)phosphoryl)methyl)phosphonic acid]
0.54 nM	11.8 nM	O=P(O)(O)CP(=O)(O)OC[C@H]1O[C@@H](n2ncc3c(N[C@@H]4CCc5cc(C(F)(F)F)ccc54)cc(Cl)nc32)[C@H](O)[C@@H]1O [Example 19, (((((2R,3S,4R,5R)-5-(6-chloro-4-(((R)-5-(trifluoromethyl)-2,3-dihydro-1H-inden-1-yl)amino)-1H-pyrazolo[3,4-b]pyridin-1-yl)-3,4-dihydroxytetrahydrofuran-2-yl)methoxy)(hydroxy)phosphoryl)methyl)phosphonic acid]
0.21 nM	0.21 nM	O=P(O)(O)CP(=O)(O)OC[C@H]1O[C@@H](n2ncc3c(N[C@@H]4CCc5cc(F)cc(F)c54)cc(Cl)nc32)[C@H](O)[C@@H]1O [Example 21, (((((2R,3S,4R,5R)-5-(6-chloro-4-(((R)-5,7-difluoro-2,3-dihydro-1H-inden-1-yl)amino)-1H-pyrazolo[3,4-b]pyridin-1-yl)-3,4-dihydroxytetrahydrofuran-2-yl)methoxy)(hydroxy)phosphoryl)methyl)phosphonic acid]
0.45 nM	0.16 nM	CN(c1cc(Cl)nc2c1cnn2[C@@H]1O[C@H](COP(=O)(O)CP(=O)(O)O)[C@@H](O)[C@H]1O)[C@H]1CCc2ccccc21 [Example 14, (((((2R,3S,4R,5R)-5-(6-chloro-4-(((S)-2,3-dihydro-1H-inden-1-yl)(methyl)amino)-1H-pyrazolo[3,4-b]pyridin-1-yl)-3,4-dihydroxytetrahydrofuran-2-yl)methoxy)(hydroxy)phosphoryl)methyl)phosphonic acid]
0.266 nM	7.8 nM	O=P(O)(O)CP(=O)(O)OC[C@H]1C[C@@H](c2ccc3c(N[C@@H]4CCc5cc(Cl)ccc54)nc(Cl)nn23)[C@H](O)[C@@H]1O [Example 38, (((((1R,2R,3S,4S)-4-(2-chloro-4-(((R)-5-chloro-2,3-dihydro-1H-inden-1-yl)amino)pyrrolo[2,1-f][1,2,4]triazin-7-yl)-2,3-dihydroxycyclopentyl)methoxy)(hydroxy)phosphoryl)methyl)phosphonic acid]
0.176 nM	0.34 nM	O=P(O)(O)CP(=O)(O)OC[C@H]1O[C@@H](n2ncc3c(N[C@@H]4CCc5cc(F)ccc54)cc(Cl)nc32)[C@H](O)[C@@H]1O [Example 16, (((((2R,3S,4R,5R)-5-(6-chloro-4-(((R)-5-fluoro-2,3-dihydro-1H-inden-1-yl)amino)-1H-pyrazolo[3,4-b]pyridin-1-yl)-3,4-dihydroxytetrahydrofuran-2-yl)methoxy)(hydroxy)phosphoryl)methyl)phosphonic acid]
0.252 nM	3.95 nM	O=P(O)(O)CP(=O)(O)OC[C@H]1C[C@@H](c2ccc3c(N[C@@H]4CCc5cc(F)ccc54)nc(Cl)nn23)[C@H](O)[C@@H]1O [Example 28, (((((1R,2R,3S,4S)-4-(2-chloro-4-(((R)-5-fluoro-2,3-dihydro-1H-inden-1-yl)amino)pyrrolo[2,1-f][1,2,4]triazin-7-yl)-2,3-dihydroxycyclopentyl)methoxy)(hydroxy)phosphoryl)methyl)phosphonic acid]
0.245 nM	0.89 nM	Cc1cc(N[C@@H]2CCc3cc(F)cc(F)c32)c2cnn([C@@H]3O[C@H](COP(=O)(O)CP(=O)(O)O)[C@@H](O)[C@H]3O)c2n1 [Example 23, (((((2R,3S,4R,5R)-5-(4-(((R)-5,7-difluoro-2,3-dihydro-1H-inden-1-yl)amino)-6-methyl-1H-pyrazolo[3,4-b]pyridin-1-yl)-3,4-dihydroxytetrahydrofuran-2-yl)methoxy)(hydroxy)phosphoryl)methyl)phosphonic acid]
0.59 nM	2 nM	C[C@H](Nc1cc(Cl)nc2c1cnn2[C@@H]1O[C@H](COP(=O)(O)CP(=O)(O)O)[C@@H](O)[C@H]1O)c1cccc(S(F)(F)(F)(F)F)c1 [Example 8, (((((2R,3S,4R,5R)-5-(6-chloro-4-(((S)-1-(3-(pentafluoro-λ^6-sulfanyl)phenyl)ethyl)amino)-1H-pyrazolo[3,4-b]pyridin-1-yl)-3,4-dihydroxytetrahydrofuran-2-yl)methoxy)(hydroxy)phosphoryl)methyl) phosphonic acid]

— patent publication US12157755B2, “CD73 inhibitor, preparation method therefor and application thereof” (Abbisko Therapeutics Co., Ltd., priority 2019, dated 2024)
